Results as given in US10195185B2, “3-(1H-imidazo[4,5-C]pyridin-2-yl)-1H-pyrazolo[4,3-B]pyridines and therapeutic uses thereof” (Samumed, LLC, priority 2015, dated 2019).

Assays:
Assay type in all cases: cell-based
[1] = test system: Wnt activity (Wnt-responsive human Sp5 promoter, TCF/LEF binding sites) in SW480 colon carcinoma cells; test: Wnt activity screening assay: Sp5-Luc luciferase reporter gene in SW480 cells; conditions: for EC50: 10-point dose-response from 10 μM, incubated overnight; for inhibition at 10 µM: given for EC50 of >10 μM, read-out: percent inhibition at 10 μM
Method in brief: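 SW480 cells stably transduced with an Sp5 promoter (eight TCF/LEF sites)–firefly luciferase lentiviral reporter, plated at 4,000 cells/well in 1% FBS medium with compounds (10-point 1:3 series from 10 μM, 0.1% DMSO) overnight at 37 °C. BrightGlo luminescence normalised to DMSO; EC50 by four-parameter fit, else % inhibition at 10 μM.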

SW480 colon cancer cells = test: Cell viability assay (CellTiter-Blue), four days; conditions: Homo sapiens, 96 h; for EC50: CellTiter-Blue cell viability; for inhibition at 10 µM: read-out: percent inhibition at 10 μM (given for EC50 of >10 μM)
Method in brief: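 Resazurin reduction (Ex 560/Em 590 nm, ~3 h reagent incubation) served as the viability read-out after SW480 cells were treated for four days at 37 °C. Doses ran from 10 μM down to 0.0045 μM in eight 1:3 steps. Curves fitted non-linearly for EC50, else % inhibition at 10 μM reported.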

[2] = test system: Primary human fibroblasts derived from IPF patients (LL29 cells) treated with TGF-β1; test: Inhibition of the fibrotic process: αSMA staining in TGF-β1 treated fibroblasts; conditions: Fibroblast, 96 h, LL29 fibroblasts treated with TGF-β1, 4 days; for inhibition at 10 µM: read-out: percent inhibition in brackets beside EC50 >10 μM
Method in brief: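 EC50 values come from non-linear fits of the αSMA-positive percentage among SYTOX-excluded live cells, normalized to TGF-β1 plus DMSO controls, or appear as % inhibition at 10 μM when above 10 μM. Fibrosis was induced in IPF-derived LL29 fibroblasts by 20 ng/mL TGF-β1 over 4 days, with 1:2 compound dilutions from 10 μM.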

Q: c1cc2[nH]c(-c3n[nH]c4ccc(-c5cncc(CNCC6CCCC6)c5)nc34)nc2c(-c2ccoc2)n1 [Compound 333, 1-Cyclopentyl-N-((5-(3-(4-(furan-3-yl)-1H-imidazo[4,5-c]pyridin-2-yl)-1H-pyrazolo [4,3-b]pyridin-5-yl)pyridin-3-yl)methyl)methanamine] was tested. Which EC50 [1] did it give?
A: 3.82 µM

Q: What about the EC50 (SW480 colon cancer cells) of the same compound?
A: 3.42 µM

Q: And the EC50 [2]?
A: > 10 µM

Q: And the inhibition at 10 µM [2]?
A: 46.9%

Q: What does the source list for CN(C)CCNc1cc(F)cc(-c2nccc3[nH]c(-c4n[nH]c5ccc(-c6cnccn6)nc45)nc23)c1 [Compound 792, N^1-(3-Fluoro-5-(2-(5-(pyrazin-2-yl)-1H-pyrazolo[4,3-b]pyridin-3-yl)-1H-imidazo[4,5-c]pyridin-4-yl)phenyl)-N^2,N^2-dimethylethane-1,2-diamine]?
A: EC50 [1]: > 10 µM; inhibition at 10 µM [1]: 36.2%; inhibition at 10 µM (SW480 colon cancer cells): 22.1%; EC50 (SW480 colon cancer cells): > 10 µM; EC50 [2]: > 10 µM; inhibition at 10 µM [2]: 0%

Q: How did the EC50 [1] turn out when O=C(Nc1cncc(-c2ccc3[nH]nc(-c4nc5cnccc5[nH]4)c3n2)c1)C1CCCCC1 [Compound 275, N-(5-(3-(1H-Imidazo[4,5-c]pyridin-2-yl)-1H-pyrazolo[4,3-b]pyridin-5-yl)pyridin-3-yl)cyclohexanecarboxamide] was run?
A: > 10 µM

Q: And the inhibition at 10 µM [1]?
A: 0%

Q: What about the inhibition at 10 µM (SW480 colon cancer cells) of the same compound?
A: 0%

Q: What about the EC50 (SW480 colon cancer cells) of the same compound?
A: > 10 µM

Q: And the EC50 [2]?
A: > 10 µM

Q: And the inhibition at 10 µM [2]?
A: 28.8%

Q: Which results are given for CC(C)C(=O)Nc1cncc(-c2ccc3[nH]nc(-c4nc5c(N6CCN(C)CC6)nccc5[nH]4)c3n2)c1 [Compound 233, N-(5-(3-(4-(4-Methylpiperazin-1-yl)-1H-imidazo[4,5-c]pyridin-2-yl)-1H-pyrazolo[4,3-b]pyridin-5-yl)pyridin-3-yl)isobutyramide]?
A: EC50 [1]: > 10 µM; inhibition at 10 µM [1]: 6.4%; inhibition at 10 µM (SW480 colon cancer cells): 1.6%; EC50 (SW480 colon cancer cells): > 10 µM; EC50 [2]: > 10 µM; inhibition at 10 µM [2]: 2.5%

Q: How did the EC50 [1] turn out when CN1CCN(c2nccc3[nH]c(-c4n[nH]c5ccc(-c6cncnc6)nc45)nc23)CC1 [Compound 251, 3-(4-(4-Methylpiperazin-1-yl)-1H-imidazo[4,5-c]pyridin-2-yl)-5-(pyrimidin-5-yl)-1H-pyrazolo[4,3-b]pyridine] was run?
A: > 10 µM

Q: And the inhibition at 10 µM [1]?
A: 17.7%

Q: What about the inhibition at 10 µM (SW480 colon cancer cells) of the same compound?
A: 0%

Q: What about the EC50 (SW480 colon cancer cells) of the same compound?
A: > 10 µM

Q: And the EC50 [2]?
A: > 10 µM

Q: And the inhibition at 10 µM [2]?
A: 17.7%

Q: For Fc1cccc(-c2nccc3[nH]c(-c4n[nH]c5ccc(-c6cncc(CN7CCC(F)(F)C7)c6)nc45)nc23)c1 [Compound 26, 5-(5-((3,3-Difluoropyrrolidin-1-yl)methyl)pyridin-3-yl)-3-(4-(3-fluorophenyl)-1H-imidazo[4,5-c]pyridin-2-yl)-1H-pyrazolo[4,3-b]pyridine], which EC50 [1] is on record?
A: 0.547 µM

Q: What about the EC50 (SW480 colon cancer cells) of the same compound?
A: 1.24 µM

Q: And the EC50 [2]?
A: 3.21 µM

Q: What does the source list for Cc1cn(-c2nccc3[nH]c(-c4n[nH]c5ccc(-c6cncc(CN7CCCC7)c6)nc45)nc23)cn1 [Compound 210, 3-(4-(4-Methyl-1H-imidazol-1-yl)-1H-imidazo[4,5-c]pyridin-2-yl)-5-(5-(pyrrolidin-1-ylmethyl)pyridin-3-yl)-1H-pyrazolo [4,3-b]pyridine]?
A: EC50 [1]: > 10 µM; inhibition at 10 µM [1]: 5.5%; inhibition at 10 µM (SW480 colon cancer cells): 7.2%; EC50 (SW480 colon cancer cells): > 10 µM; EC50 [2]: > 10 µM; inhibition at 10 µM [2]: 2.9%

Q: Which EC50 [1] does the source give for O=C(Nc1cncc(-c2ccc3[nH]nc(-c4nc5c(-c6ccsc6)nccc5[nH]4)c3n2)c1)c1ccccc1 [Compound 291, N-(5-(3-(4-(Thiophen-3-yl)-1H-imidazo[4,5-c]pyridin-2-yl)-1H-pyrazolo [4,3-b]pyridin-5-yl)pyridin-3-yl)benzamide] here?
A: > 10 µM

Q: And the inhibition at 10 µM [1]?
A: 3.3%

Q: And the inhibition at 10 µM (SW480 colon cancer cells)?
A: 2%

Q: And the EC50 (SW480 colon cancer cells)?
A: > 10 µM

Q: And the EC50 [2]?
A: > 10 µM

Q: And the inhibition at 10 µM [2]?
A: 0%

Q: What does the source list for CC(C)Nc1cncc(-c2ccc3[nH]nc(-c4nc5c(-c6ccoc6)nccc5[nH]4)c3n2)c1 [Compound 320, 5-(3-(4-(Furan-3-yl)-1H-imidazo[4,5-c]pyridin-2-yl)-1H-pyrazolo[4,3-b]pyridin-5-yl)-N-isopropylpyridin-3-amine]?
A: EC50 [1]: 0.356 µM; EC50 (SW480 colon cancer cells): 0.439 µM; EC50 [2]: 0.17 µM

Q: With CC(C)Nc1cncc(-c2ccc3[nH]nc(-c4nc5c(-c6cccnc6)nccc5[nH]4)c3n2)c1 [Compound 96, N-Isopropyl-5-(3-(4-(pyridin-3-yl)-1H-imidazo[4,5-c]pyridin-2-yl)-1H-pyrazolo[4,3-b]pyridin-5-yl)pyridin-3-amine] as the compound, how does the EC50 [1] read?
A: 0.994 µM

Q: What about the EC50 (SW480 colon cancer cells) of the same compound?
A: 1.98 µM

Q: What about the EC50 [2] of the same compound?
A: 1.25 µM

Q: For COc1cccc(-c2nccc3[nH]c(-c4n[nH]c5ccc(-c6cn[nH]c6)nc45)nc23)c1 [Compound 1020, 3-(4-(3-Methoxyphenyl)-1H-imidazo[4,5-c]pyridin-2-yl)-5-(1H-pyrazol-4-yl)-1H-pyrazolo[4,3-b]pyridine], which EC50 [1] is on record?
A: > 10 µM

Q: And the inhibition at 10 µM [1]?
A: 5.7%

Q: And the inhibition at 10 µM (SW480 colon cancer cells)?
A: 6.4%

Q: What about the EC50 (SW480 colon cancer cells) of the same compound?
A: > 10 µM

Q: What about the EC50 [2] of the same compound?
A: > 10 µM

Q: And the inhibition at 10 µM [2]?
A: 0%

Q: How did the EC50 [1] turn out when Cc1ccncc1-c1ccc2[nH]nc(-c3nc4c(-c5ccsc5)nccc4[nH]3)c2n1 [Compound 285, 5-(4-Methylpyridin-3-yl)-3-(4-(thiophen-3-yl)-1H-imidazo[4,5-c]pyridin-2-yl)-1H-pyrazolo[4,3-b]pyridine] was run?
A: 0.206 µM

Q: And the EC50 (SW480 colon cancer cells)?
A: 0.638 µM

Q: And the EC50 [2]?
A: 0.493 µM

Q: Which EC50 [1] does the source give for NC1CN(c2cncc(-c3ccc4[nH]nc(-c5nc6c(-c7ccc(Cl)s7)nccc6[nH]5)c4n3)n2)C1 [Compound 1068, 1-(6-(3-(4-(5-Chlorothiophen-2-yl)-1H-imidazo[4,5-c]pyridin-2-yl)-1H-pyrazolo[4,3-b]pyridin-5-yl)pyrazin-2-yl)azetidin-3-amine] here?
A: 4.2 µM

Q: And the inhibition at 10 µM (SW480 colon cancer cells)?
A: 48.2%

Q: And the EC50 (SW480 colon cancer cells)?
A: > 10 µM

Q: And the EC50 [2]?
A: 3.99 µM

Q: What does the source list for Cc1ncc(-c2ccc3[nH]nc(-c4nc5c(-c6cccc(F)c6)nccc5[nH]4)c3n2)s1 [Compound 1126, 5-(3-(4-(3-Fluorophenyl)-1H-imidazo[4,5-c]pyridin-2-yl)-1H-pyrazolo[4,3-b]pyridin-5-yl)-2-methylthiazole]?
A: EC50 [1]: 0.235 µM; inhibition at 10 µM (SW480 colon cancer cells): 26.6%; EC50 (SW480 colon cancer cells): > 10 µM; EC50 [2]: 0.203 µM

Q: How did the EC50 [1] turn out when CN(C)CC(=O)Nc1cncc(-c2ccc3[nH]nc(-c4nc5c(-c6cccc(F)c6)nccc5[nH]4)c3n2)c1 [Compound 969, 2-(Dimethylamino)-N-(5-(3-(4-(3-fluorophenyl)-1H-imidazo[4,5-c]pyridin-2-yl)-1H-pyrazolo[4,3-b]pyridin-5-yl)pyridin-3-yl)acetamide] was run?
A: 3.08 µM

Q: And the EC50 (SW480 colon cancer cells)?
A: 1.63 µM

Q: And the EC50 [2]?
A: 1.63 µM

Q: With Fc1ccc(-c2nccc3[nH]c(-c4n[nH]c5ccc(-c6cncnc6)nc45)nc23)cc1 [Compound 55, 3-(4-(4-Fluorophenyl)-1H-imidazo[4,5-c]pyridin-2-yl)-5-(pyrimidin-5-yl)-1H-pyrazolo[4,3-b]pyridine] as the compound, how does the EC50 [1] read?
A: 1.22 µM

Q: And the inhibition at 10 µM (SW480 colon cancer cells)?
A: 15.1%

Q: What about the EC50 (SW480 colon cancer cells) of the same compound?
A: > 10 µM

Q: And the EC50 [2]?
A: 2.18 µM

Q: What does the source list for O=C(Nc1cncc(-c2ccc3[nH]nc(-c4nc5c(-c6ccccn6)nccc5[nH]4)c3n2)c1)c1ccccc1 [Compound 151, N-(5-(3-(4-(Pyridin-2-yl)-1H-imidazo[4,5-c]pyridin-2-yl)-1H-pyrazolo[4,3-b]pyridin-5-yl)pyridin-3-yl)benzamide]?
A: EC50 [1]: > 10 µM; inhibition at 10 µM [1]: 9.9%; inhibition at 10 µM (SW480 colon cancer cells): 1.6%; EC50 (SW480 colon cancer cells): > 10 µM; EC50 [2]: > 10 µM; inhibition at 10 µM [2]: 0%

Q: Which EC50 [1] does the source give for COc1cncc(-c2ccc3[nH]nc(-c4nc5c(-c6ccoc6)nccc5[nH]4)c3n2)c1 [Compound 692, 3-(4-(Furan-3-yl)-1H-imidazo[4,5-c]pyridin-2-yl)-5-(5-methoxypyridin-3-yl)-1H-pyrazolo[4,3-b]pyridine] here?
A: 0.745 µM

Q: And the EC50 (SW480 colon cancer cells)?
A: 1.57 µM

Q: And the EC50 [2]?
A: 0.334 µM

Q: For CCCCC(=O)Nc1cncc(-c2ccc3[nH]nc(-c4nc5c(-c6ccoc6)nccc5[nH]4)c3n2)c1 [Compound 327, N-(5-(3-(4-(Furan-3-yl)-1H-imidazo[4,5-c]pyridin-2-yl)-1H-pyrazolo[4,3-b]pyridin-5-yl)pyridin-3-yl)pentanamide], which EC50 [1] is on record?
A: 2.03 µM

Q: And the inhibition at 10 µM (SW480 colon cancer cells)?
A: 10.1%

Q: What about the EC50 (SW480 colon cancer cells) of the same compound?
A: > 10 µM

Q: And the EC50 [2]?
A: > 10 µM

Q: What about the inhibition at 10 µM [2] of the same compound?
A: 0%

Q: For O=C(Nc1cncc(-c2ccc3[nH]nc(-c4nc5c(-c6ccc(Cl)s6)nccc5[nH]4)c3n2)c1)C1CCC1 [Compound 1056, N-(5-(3-(4-(5-Chlorothiophen-2-yl)-1H-imidazo[4,5-c]pyridin-2-yl)-1H-pyrazolo[4,3-b]pyridin-5-yl)pyridin-3-yl)cyclobutanecarboxamide], which EC50 [1] is on record?
A: 0.897 µM

Q: And the EC50 (SW480 colon cancer cells)?
A: 2.15 µM

Q: What about the EC50 [2] of the same compound?
A: 2.24 µM

Q: With CN(C)Cc1cncc(-c2ccc3[nH]nc(-c4nc5c(N6CCCCC6)nccc5[nH]4)c3n2)c1 [Compound 181, N,N-Dimethyl-1-(5-(3-(4-(piperidin-1-yl)-1H-imidazo[4,5-c]pyridin-2-yl)-1H-pyrazolo [4,3-b]pyridin-5-yl)pyridin-3-yl)methanamine] as the compound, how does the EC50 [1] read?
A: > 10 µM

Q: And the inhibition at 10 µM [1]?
A: 8.4%

Q: What about the EC50 (SW480 colon cancer cells) of the same compound?
A: 4.69 µM

Q: And the EC50 [2]?
A: 4.05 µM
